Test results taken from ChEMBL document CHEMBL3044528, “Potential new fungicides: N-acyl-5-methyl-3(2H)-isoxazolone derivatives” (2012).

Tests used:
Assay type in all cases: functional
[1] = test system: Pyrenophora graminea; test: Fungicidal activity against Pyrenophora graminea IFO-7507 assessed as mycelial growth inhibition at 25 mg/L after 3 days; settings: IFO-7507, 72 h, read-out: GI
[2] = test system: Alternaria alternata; test: Fungicidal activity against Alternaria alternata APS-38 assessed as mycelial growth inhibition at 25 mg/L after 3 days; settings: APS-38, 72 h, read-out: GI
[3] = test system: Rhynchosporium secalis; test: Fungicidal activity against Rhynchosporium secalis IFO-5290 assessed as mycelial growth inhibition at 25 mg/L after 14 days; settings: IFO-5290, 336 h, read-out: GI
[4] = test system: Zymoseptoria tritici; test: Fungicidal activity against Zymoseptoria tritici S3 assessed as mycelial growth inhibition at 25 mg/L after 14 days; settings: S3, 336 h, read-out: GI
[5] = test system: Fusarium graminearum; test: Fungicidal activity against Fusarium graminearum H3 assessed as mycelial growth inhibition at 25 mg/L after 3 days; settings: H3, 72 h, read-out: GI
[6] = test system: Gaeumannomyces graminis; test: Fungicidal activity against Gaeumannomyces graminis MAFF305168 assessed as mycelial growth inhibition at 25 mg/L after 1 day; settings: MAFF305168, 24 h, read-out: GI
[7] = test system: Cercospora beticola; test: Fungicidal activity against Cercospora beticola Be-2-6 assessed as mycelial growth inhibition at 25 mg/L after 7 days; settings: Be-2-6, 168 h, read-out: GI
[8] = test system: Rhizoctonia solani; test: Fungicidal activity against Rhizoctonia solani ET0007 assessed as mycelial growth inhibition at 25 mg/L after 1 day; settings: ET0007, 24 h, read-out: GI
[9] = test system: Microdochium nivale; test: Fungicidal activity against Microdochium nivale IFO-7432 assessed as mycelial growth inhibition at 25 mg/L after 3 days; settings: IFO-7432, 72 h, read-out: GI

Row | Structure (SMILES) | inhibition of growth at 25 µg/mL [1] [%] | inhibition of growth at 25 µg/mL [2] [%] | inhibition of growth at 25 µg/mL [3] [%] | inhibition of growth at 25 µg/mL [4] [%] | inhibition of growth at 25 µg/mL [5] [%] | inhibition of growth at 25 µg/mL [6] [%] | inhibition of growth at 25 µg/mL [7] [%] | inhibition of growth at 25 µg/mL [8] [%] | inhibition of growth at 25 µg/mL [9] [%]
1 | CCCn1oc(C)cc1=O | 16 | 11 | 2 | 0 | 8 | 3 | 4 | 15 | 4
2 | CC(=O)n1oc(C)cc1=O | 72 | 90 | 100 | 98 | 50 | 72 | 92 | 26 | 79
3 | Cc1cc(=O)n(C(=O)c2ccccc2I)o1 | 92 | 33 | 100 | 47 | 36 | 25 | 88 | 57 | 61
4 | Cc1cc(=O)n(C(=O)CC(C)(C)C)o1 | 76 | 64 | 96 | 70 | 47 | 97 | 93 | 71 | 76
5 | Cc1cc(=O)n(C(=O)Cc2ccccc2)o1 | 71 | 67 | 99 | 83 | 32 | 66 | 84 | 5 | 51
6 | Cc1cc(=O)n(C(=O)/C=C/c2ccsc2)o1 | 97 | 50 | 100 | 61 | 32 | 45 | 90 | 100 | 69
7 | Cc1cc(=O)n(C(=O)C#Cc2ccccc2)o1 | 73 | 72 | 98 | 83 | 23 | 3 | 88 | 17 | 41
8 | Cc1cc(=O)n(C(=O)C2(c3ccccc3)CC2(Cl)Cl)o1 (stereo not given) | 89 | 50 | 99 | 69 | 32 | 9 | 85 | 46 | 58
9 | Cc1cc(=O)n(C(=O)CCC(F)(F)F)o1 | 46 | 61 | 98 | 65 | 32 | 60 | 89 | 57 | 54
10 | CCC(=O)n1oc(C)cc1=O | 88 | 87 | 100 | 69 | 32 | 50 | 94 | 22 | 68
11 | CSCCC(=O)n1oc(C)cc1=O | 76 | 64 | 99 | 67 | 37 | 58 | 92 | 62 | 50
12 | Cc1cc(=O)n(C(=O)C(C)(C)Oc2ccc(Cl)cc2)o1 | 81 | 53 | 100 | 73 | 6 | 29 | 74 | 3 | 23
13 | Cc1cc(=O)n(C(=O)CCCCC(=O)n2oc(C)cc2=O)o1 | 91 | 81 | 100 | 52 | 27 | 56 | 93 | 18 | 61
14 | COCC(=O)n1oc(C)cc1=O | 82 | 62 | 100 | 63 | 37 | 54 | 91 | 68 | 45
15 | Cc1cc(=O)n(C(=O)C(C)(C)C)o1 | 95 | 84 | 100 | 64 | 40 | 83 | 85 | 43 | 82
16 | Cc1cc(=O)n(C(=O)CCl)o1 | 89 | 81 | 100 | 70 | 28 | 66 | 94 | 19 | 72
17 | Cc1cc(=O)n(C(=O)/C=C/c2ccccc2)o1 | 90 | 67 | 100 | 62 | 26 | 0 | 91 | 92 | 59
18 | Cc1cc(=O)n(C(=O)c2c(F)c(F)c(F)c(F)c2F)o1 | 87 | 60 | 100 | 56 | 22 | 0 | 90 | 5 | 36
19 | Cc1cc(O)no1 [HYMEXAZOL] | 80 | 74 | 100 | 86 | 45 | 56 | 88 | 28 | 77
20 | CCn1oc(C)cc1=O | 6 | 21 | 13 | 0 | 4 | 3 | 2 | 0 | 0
21 | Cc1cc(=O)n(C(=O)/C=C/c2cccs2)o1 | 89 | 54 | 100 | 78 | 40 | 16 | 77 | 75 | 60
22 | Cc1cc(C)c(C(=O)n2oc(C)cc2=O)c(C)c1 | 90 | 22 | 0 | 10 | 10 | 22 | 11 | 3 | 4
23 | Cc1cc(=O)n(C(=O)C2(C)C(C)(C)C2(Cl)Cl)o1 (stereo not given) | 79 | 31 | 87 | 50 | 20 | 0 | 80 | 24 | 36
24 | Cc1cc(=O)n(C(=O)/C=C/c2ccoc2)o1 | 96 | 60 | 100 | 53 | 44 | 72 | 91 | 90 | 68
25 | Cc1cc(=O)n(Cc2ccccc2)o1 | 46 | 9 | 0 | 6 | 6 | 0 | 4 | 10 | 4
